Measurements published in US20030219866A1, “Stem cell-like cells” (priority 2000, published 2003).

Columns and labels:
Format in all cases: cell-based
[1] = system: human Mesenchymal Stem Cells; experiment: OCT4 expression after TSA treatment in hMSC (RT-PCR); set-up: key to OCT4 expression: +/− expression detectable; (+) clear expression; (++ strong expression); details: for OCT4 expression: hMSC, RT-PCR
Method: (§1) (a) RNA isolation and eDNA synthesis. At the time of harvest, medium was aspirated and cells were lyzed using Ultraspec™ (Biotecx) or Trizol® (Gibco BRL). RNA was isolated according to the instructions of the suppliers. RNA concentration was determined by measuring OD260 and equal amounts of RNA of the indicated cell lines were subjected to conversion into cDNA. RNA was reversed transcribed using random primers and 15 units M-MuLV (Promega) in a reaction mixture containing 4 μl 25 mM MgCl2, 2 μl of each of the four dNTPs at 10 mM and 0.5 μl RNasin (Promega) in a total volume of 20 μl. RNA and 0.5 μg random hexamers were pre-incubated for 10 minutes at 55-60°. Mixtures were incubated at 37° C. for 1 hour.
(§2) (b) PCR reactions. PCR was were performed using 2 μl cDNA, 2.5 μl 10× SuperTaq buffer (without magnesium), 0.25 μl forward primer, 0.25 μl reverse primer, 0.50 μl 10 mM dNTPs, 1.25 Units of SuperTaq polymerase. In the case of β2-microglobulin 1.5 mM MgCl2 was added to the reaction mixture. For mouse UTF1 PCR, normal Taq polymerase (Roche) was used with a buffer containing MgCl2. The conditions for the PCR reaction were: 5 minutes 94° C.; 28 cycles of 30 seconds 94° C., 30 seconds 60° C. and 30 seconds 72° C.; 10 minutes 72° C., using a PTC-200, Peltier Thermal cycler. PCR-fragments were run on a 2% agarose gel and visualized by ethidium bromide staining.
(§3) HDAC activity is inhibited by Trichostatin A (TSA). Human mesenchymal stem cells and mouse and human neuronal progenitor cells were treated by TSA at concentration of 10 and 50 ng/ml. After 24 and 48 hours, OCT4 expression was analyzed by RT-PCR.

[2] = system: TSA treated cells; experiment: UTF1 expression and TGF-beta/activin/BMP responsiveness of TSA treated cells
[3] = system: mouse Neural Progenitor Cells; experiment: OCT4 expression after TSA treatment in mNPC (RT-PCR); set-up: key to OCT4 expression: +/− expression detectable; (+) clear expression; (++ strong expression); details: for OCT4 expression: mNPC (eGFP/bcl2), RT-PCR
Method: as §1, §2, §3

[4] = system: human Neural Progenitor Cells; experiment: OCT4 expression after TSA treatment in hNPC (RT-PCR); set-up: key to OCT4 expression: +/− expression detectable; (+) clear expression; (++ strong expression); details: for OCT4 expression: hNPC, RT-PCR
Method: as §1, §2, §3

`CC(/C=C/C(=O)NO)=C\[C@@H](C)C(=O)c1ccc(N(C)C)cc1` [TSA, Trichostatin A] was tested, and the OCT4 expression ([1]; TSA 10 ng/ml, 24 hours) was “+”, the OCT4 expression ([1]; TSA 10 ng/ml, 48 hours) was “++” and the OCT4 expression ([1]; TSA 50 ng/ml, 24 hours) was “+”. The OCT4 expression ([1]; TSA 50 ng/ml, 48 hours) was “++”, the SSEA4 expression ([1]; human MSC, TSA treated, in parallel with upregulation of OCT4) was “increased” and the “expression of OCT4” value ([1]; human MSC, TSA treatment for 24 to 48 hours) was “enhances”. For the same compound, the “TGF-beta, activin and BMP responsiveness” value [2] was “reduction”, the “expression of UTF1” value [2] was “increased” and the OCT4 expression ([3]; TSA 10 ng/ml, 24 hours) was “+”. For the same compound, the OCT4 expression ([3]; TSA 10 ng/ml, 48 hours) was “++”, the OCT4 expression ([3]; TSA 50 ng/ml, 24 hours) was “+” and the “expression of OCT4” value ([3]; mouse neural progenitor cells, TSA treatment for 24 to 48 hours) was “enhances”. For the same compound, the OCT4 expression ([4]; TSA 10 ng/ml, 24 hours) was “+”, the OCT4 expression ([4]; TSA 10 ng/ml, 48 hours) was “++” and the OCT4 expression ([4]; TSA 50 ng/ml, 24 hours) was “+”. The SSEA4 expression ([4]; human Neural Progenitor Cells, TSA treated, in parallel with upregulation of OCT4) was “increased” and the “expression of OCT4” value ([4]; human Neural Progenitor Cells, TSA treatment for 24 to 48 hours) was “enhances”.
